Measured values reported in patent publication US20050234041A1, “Substituted 1-benzazepines and derivatives thereof” (priority 2001, published 2005).
Values after ≈ are worked out from the molar mass of the structure shown.

Key:
[1] = system: Campylobacter jejuni; assay: MIC, broth dilution method, Campylobacter jejuni; assay type: cell-based; details: for MIC: Campylobacter jejuni, read-out: Antibacterial Activity (micrograms/ml) Campylobacter jejuni; for MIC / Antibacterial Activity (micrograms/ml) Campylobacter jejuni: Table IV, lowest concentration that inhibits bacterial growth, MIC
Excerpt: (§1) Antibacterial activity can be determined by several standard methods well known by those skilled in the art, including disc diffusions methods, broth dilution minimal inhibitory concentration (MIC) methods, etc., including the detailed method outlined below and as defined by the National Committee of Clinical Laboratory Standards in the United States.
(§2) MIC, Broth Dilution Method
(§3) Cultures of bacteria are initially brought up from the freezer stocks onto chocolate agar plates by streaking a loop-full, then incubated for 18 hours at 35-37° C. in a 5% CO2 incubator.
(§4) Five to 10 colonies are picked from the chocolate agar plate for subculture to Brain-Heart Infusion (BHI) broth or Mueller Hinton broth or BHI containing 4% serum and incubated as described.
(§5) Evaluate the optical density of the organisms in the wells of a 96 well microtiter plate with and without the test compound. The optical density of the organisms in the presence of an active compound will be less than the optical density of the same organism untreated. The activity of the compounds is described as either negative or the lowest concentration inhibiting growth. The results are depicted in Table III, where +/− represents the least activity and ++++ represents the greatest activity. In Table IV, the results are depicted where MIC represents the lowest concentration of antibiotic that inhibits bacterial growth.

[2] = system: bacteria; assay: Antibacterial activity, broth dilution (Table III); assay type: cell-based; details: graded activity, organism not given
Excerpt: as §1, §2, §3, §4, §5

[3] = system: Helicobacter pylori; assay: MIC, broth dilution method, Helicobacter pylori; assay type: cell-based; details: for MIC: Helicobacter pylori, read-out: Antibacterial Activity (micrograms/ml) Helicobacter pylori; for MIC / Antibacterial Activity (micrograms/ml) Helicobacter pylori: Table IV, lowest concentration that inhibits bacterial growth, MIC
Excerpt: as §1, §2, §3, §4, §5

CCN1C(=O)C(C(=O)O)CCc2cc(N3CCNCC3)c(OC)cc21.Cl (racemic) [Example 15, 3(R, S)-Carboxyl-1-ethyl-8-methoxy-7-(piperazin-1-yl)-2,3,4,5-tetrahydro-1H-1-benzazepine-2-one hydrochloride]
MIC [1]: > 200 µg/mL | melting point: 173 to 176 °C (dec.) | Antibacterial Activity [2]: − | MIC [3]: > 200 µg/mL

CCN1C(=O)C(C(=O)OC(C)(C)C)C=Cc2ccc(OC)cc21 (racemic) [Example 16, 3(R,S)-tert-Butoxycarbonyl-1-ethyl-8-methoxy-2,3-dihydro-1H-1-benzazepine-2-one]
MIC [1]: > 200 µg/mL | melting point: 173 to 174 °C | Antibacterial Activity [2]: ++++ | MIC [3]: > 6.25 µg/mL

CCN1C(=O)C(C(=O)O)CCc2cc(Br)c(OC)cc21 (racemic) [Example 17, 7-Bromo-3(R,S)-carboxyl-1-ethyl-8-methoxy-2,3,4,5tetrahydro-1H-1-benzazepine-2-one]
MIC [1]: > 200 µg/mL | melting point: 188 to 189 °C (dec.) | Antibacterial Activity [2]: +/− | MIC [3]: 200 µg/mL (≈ 584 µM)

COc1cc2c(cc1Br)CCC(C(=O)OC(C)(C)C)C(=O)N2Cc1cccc(F)c1 (racemic) [Example 30, 7-Bromo-3(R,S)-tert-butoxycarbonyl-1-(3-fluorobenzyl)-8-methoxy-2,3,4,5-tetrahydro-1H-1-benzazepine-2-one]
MIC [1]: > 200 µg/mL | melting point: 146 to 148 °C | Antibacterial Activity [2]: ++++ | MIC [3]: 1.56 µg/mL (≈ 3.26 µM)

COc1cc2c(cc1Br)CCC(C(=O)OC(C)(C)C)C(=O)N2 (racemic) [Example 32, 7-Bromo-3(R,S)-tert-butoxycarbonyl-8-methoxy-2,3,4,5-tetrahydro-1H-1-benzazepine-2-one]
MIC [1]: > 200 µg/mL | melting point: 207 to 208 °C | Antibacterial Activity [2]: ++++ | MIC [3]: 0.78 µg/mL (≈ 2.11 µM)

CCOC(=O)NC(=S)Nc1cc2c(cc1OC)NC(=O)C(C(=O)OC(C)(C)C)CC2 (racemic) [Example 176, 3(R,S)-tert-Butoxycarbonyl-7-[(ethoxycarbonylamino)thiocarbonyl)]amino-8-methoxy-2,3,4,5-tetrahydro-1H-1-benzazepine-2-one]
Antibacterial Activity (micrograms/ml) Campylobacter jejuni [1]: >250 micrograms/ml | MIC (μg/mL) C. jejuni ([1]; Table V): >250, μg/mL | Antibacterial Activity [2]: ++++ | Antibacterial Activity (micrograms/ml) Helicobacter pylori [3]: 4 micrograms/ml | MIC (μg/mL) H. pylori ([3]; Table V): 4 µg/mL (≈ 9.14 µM)

CCN1C(=O)CCCc2cc(N3CCN(C)CC3)c(OC)cc21 [Example 10]
Antibacterial Activity (micrograms/ml) Campylobacter jejuni [1]: >200 micrograms/ml | Antibacterial Activity [2]: +/− | Antibacterial Activity (micrograms/ml) Helicobacter pylori [3]: >200 micrograms/ml

CCN1C(=O)CCCc2cc(N3CCNCC3)c(OC)cc21.Cl [Example 22, 1-ethyl-8-methoxy-7-(piperazin-1-yl)-2,3,4,5-tetrahydro-1H-1-benzazepine-2-one hydrochloride]
MIC [1]: > 200 µg/mL | Antibacterial Activity [2]: − | MIC [3]: > 200 µg/mL

O=C1CCCc2ccc(O)cc2N1 [Example 33, 8-Hydroxy-2,3,4,5-tetrahydro-1H-1-benzazepine-2-one]
MIC [1]: > 200 µg/mL | melting point: 226 to 227 °C | Antibacterial Activity [2]: ++++ | MIC [3]: 0.78 µg/mL (≈ 4.4 µM)
